Measurements as given in ChEMBL document CHEMBL1132461 (J Med Chem, 1999).
Numbered stars: 1 amine (or outer) side, 2 acyl side, 3 side chain; on linkers, the order of the positions; unused ones are H or OH. Bridge positions count the residues as written; N and C are the ends. Square brackets hold non-standard residues; d marks the D form. Peptide text beside a SMILES is read from it. X2 = O=C([C@@H]1CC[C@@H]([*:3])N1[*:1])[*:2]; X1 = O=C([C@@H]1CC[C@H]([*:3])N1[*:1])[*:2]; hCys = N[C@@H](CCS)C(=O)O

How the values were obtained:
[1] = target: T1, Angiotensin II receptor (AT-1) type-1 (Rattus norvegicus, UniProt P29089+P25095); test: In vitro inhibitory activity against rat Angiotensin II receptor, type 1 expressed in CHO cells; assay type: cell-based
T1 sequence (P29089 whole entry): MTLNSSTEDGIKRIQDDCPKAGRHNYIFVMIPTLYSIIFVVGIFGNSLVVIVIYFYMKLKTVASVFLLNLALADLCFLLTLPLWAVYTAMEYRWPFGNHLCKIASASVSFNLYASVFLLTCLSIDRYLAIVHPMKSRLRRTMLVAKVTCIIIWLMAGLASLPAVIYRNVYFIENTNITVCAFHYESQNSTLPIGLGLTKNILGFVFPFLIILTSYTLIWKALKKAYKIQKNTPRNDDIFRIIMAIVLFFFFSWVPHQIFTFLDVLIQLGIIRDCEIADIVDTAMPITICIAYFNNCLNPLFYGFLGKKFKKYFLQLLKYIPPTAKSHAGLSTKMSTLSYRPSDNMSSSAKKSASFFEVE
T1 sequence (P25095 whole entry): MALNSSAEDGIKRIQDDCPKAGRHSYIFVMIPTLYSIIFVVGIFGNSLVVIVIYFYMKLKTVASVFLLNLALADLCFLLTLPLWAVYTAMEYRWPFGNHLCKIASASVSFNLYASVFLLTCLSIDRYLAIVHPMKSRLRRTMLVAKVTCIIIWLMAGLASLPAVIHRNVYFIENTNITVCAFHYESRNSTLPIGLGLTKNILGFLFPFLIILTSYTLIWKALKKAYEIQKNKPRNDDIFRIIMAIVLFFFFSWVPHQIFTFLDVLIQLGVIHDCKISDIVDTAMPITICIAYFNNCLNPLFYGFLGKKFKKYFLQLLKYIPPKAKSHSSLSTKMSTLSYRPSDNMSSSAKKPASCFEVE

[2] = target: T1, Angiotensin II receptor (AT-1) type-1; test: In vitro binding affinity against Angiotensin II receptor, type 1 from rat liver membranes

| SMILES | IC50 [1] [µM] | Ki [2] [nM] |
| --- | --- | --- |
| NC(N)=NCCC[C@H](NC(=O)[C@@H](N)CC(=O)O)C(=O)N[C@H]1CCS[C@H]2CC[C@@H](C(=O)N[C@@H](Cc3c[nH]cn3)C(=O)N3CCC[C@H]3C(=O)N[C@@H](Cc3ccccc3)C(=O)O)N2C(=O)[C@H](Cc2ccc(O)cc2)NC1=O (H-DR[hCys]Y[X1]HPF-OH; thioether 3-5) | 0.8 | 750 |
| NC(N)=NCCC[C@H](NC(=O)[C@@H](N)CC(=O)O)C(=O)N[C@H]1CCSSCC[C@@H](C(=O)N[C@@H](Cc2c[nH]cn2)C(=O)N2CCC[C@H]2C(=O)N[C@@H](Cc2ccccc2)C(=O)O)NC(=O)[C@H](Cc2ccc(O)cc2)NC1=O (H-DR[hCys]Y[hCys]HPF-OH; disulfide 3-5) | 0.0002 | 0.19 |
| CC(C)[C@H](NC(=O)[C@H](CCCN=C(N)N)NC(=O)[C@@H](N)CC(=O)O)C(=O)N[C@@H](Cc1ccc(O)cc1)C(=O)N[C@H]1CS[C@@H]2CC[C@@H](C(=O)N[C@@H](Cc3ccccc3)C(=O)O)N2C(=O)[C@H](Cc2c[nH]cn2)NC1=O (H-DRVYCH[X2]F-OH; thioether 5-7) | > 10 |  |
| NC(N)=NCCC[C@H](NC(=O)[C@@H](N)CC(=O)O)C(=O)N[C@H]1CS[C@@H]2CC[C@@H](C(=O)N[C@@H](Cc3c[nH]cn3)C(=O)N3CCC[C@H]3C(=O)N[C@@H](Cc3ccccc3)C(=O)O)N2C(=O)[C@H](Cc2ccc(O)cc2)NC1=O (H-DRCY[X2]HPF-OH; thioether 3-5) | > 10 |  |
| NC(N)=NCCC[C@H](NC(=O)[C@@H](N)CC(=O)O)C(=O)N[C@H]1CS[C@H]2CC[C@@H](C(=O)N[C@@H](Cc3c[nH]cn3)C(=O)N3CCC[C@H]3C(=O)N[C@@H](Cc3ccccc3)C(=O)O)N2C(=O)[C@H](Cc2ccc(O)cc2)NC1=O (H-DRCY[X1]HPF-OH; thioether 3-5) | > 10 |  |
